Source: BindingDB's records for doi:10.1007/bf00965909 (Biological Research Center of Hungarian Academy of Sciences, 1990)
Several values for one entry are separate records, joined by “and”; a condition that tells them apart may be missing. Equal entries are not always repeated.

Key:
[1] = molecular target: kappa-type opioid receptor isoform 1 (Xenopus tropicalis, UniProt F7A0F2)
[2] = molecular target: Kappa-type opioid receptor (Rattus norvegicus, UniProt P34975)
Kappa-type opioid receptor, sequence (P34975 whole entry): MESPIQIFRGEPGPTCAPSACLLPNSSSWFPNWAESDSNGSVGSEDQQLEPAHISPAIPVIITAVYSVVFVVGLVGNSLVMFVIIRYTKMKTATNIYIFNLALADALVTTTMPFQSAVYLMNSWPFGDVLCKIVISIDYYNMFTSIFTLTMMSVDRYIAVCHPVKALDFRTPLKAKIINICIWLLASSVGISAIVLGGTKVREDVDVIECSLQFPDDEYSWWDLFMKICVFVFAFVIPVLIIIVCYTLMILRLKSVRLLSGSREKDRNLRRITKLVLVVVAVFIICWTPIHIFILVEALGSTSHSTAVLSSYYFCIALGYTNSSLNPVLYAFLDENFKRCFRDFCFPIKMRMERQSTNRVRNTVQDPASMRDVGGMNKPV

kappa-type opioid receptor isoform 1, sequence (F7A0F2 whole entry, canonical isoform): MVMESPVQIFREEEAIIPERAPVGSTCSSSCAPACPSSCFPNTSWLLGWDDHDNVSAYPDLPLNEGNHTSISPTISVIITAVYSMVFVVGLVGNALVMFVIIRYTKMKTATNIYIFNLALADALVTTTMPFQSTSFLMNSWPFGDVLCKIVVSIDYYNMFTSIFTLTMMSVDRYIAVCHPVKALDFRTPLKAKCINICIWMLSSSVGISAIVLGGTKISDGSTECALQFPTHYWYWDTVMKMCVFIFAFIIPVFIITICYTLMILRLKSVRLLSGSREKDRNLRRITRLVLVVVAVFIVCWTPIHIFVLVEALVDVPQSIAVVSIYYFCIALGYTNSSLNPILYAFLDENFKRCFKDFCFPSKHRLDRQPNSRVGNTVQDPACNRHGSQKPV

Molecule | Ki [1] | Ki [2]
CC1[C@H]2Cc3ccc(O)cc3[C@]1(C)CCN2C[C@@H]1CCCO1 (stereo partly drawn) [(+)-alpha-(1R,5R,9R)-5,9-Dimethyl-2-L-tetrahydrofurfuryl)-2'-hydroxy-6,7-benzomorphan] | 5400 nM | 
CC1[C@H]2Cc3ccc(O)cc3[C@]1(C)CCN2C[C@H]1CCCO1 (stereo partly drawn) [CAS_57236-85-8] | 4.8 nM | 
CC[C@H](C)[C@H](NC(=O)[C@H](CCCNC(=N)N)NC(=O)[C@H](CCCNC(=N)N)NC(=O)[C@H](CC(C)C)NC(=O)[C@H](Cc1ccccc1)NC(=O)CNC(=O)CNC(=O)[C@@H](N)Cc1ccc(O)cc1)C(=O)N[C@@H](CCCNC(=N)N)C(=O)N1CCC[C@H]1C(=O)N[C@@H](CCCCN)C(=O)N[C@@H](CC(C)C)C(=O)N[C@@H](CCCCN)C(=O)O [Dynorphin A (1-13)] | 12 nM and 3.1 nM | 57 nM
[N-]=[N+]=N[C@@H]1CC[C@H]2[C@H]3Cc4ccc(O)c5c4[C@@]2(CCN3CC2CC2)[C@@H]1O5 [N-cyclopropylmethylnorazidomorphine] | 0.1 nM | 0.1 nM and 0.2 nM and 0.3 nM
C[C@@H](NC(=O)[C@@H](N)Cc1ccc(O)cc1)C(=O)NCC(=O)N(C)[C@@H](Cc1ccccc1)C(=O)NCCO [[tyrosyl-3,5-3H(N)]-D-Ala2-Mephe4-glyol5-enkephalin] | 59 nM and 360 nM and 470 nM | 
H-YGGFMTSEKSQTPLVTLFKNAIVKNAHKKGQ-OH [Beta-Endorphin] |  | 2.3 nM
